Reference: patent US9234017B2, “Aquaporin-4 peptide compositions and methods of use thereof” (The Regents of the University of California, priority 2012, dated 2016)
Read-outs that look alike come from different tables or passages of the source.

Experiments:
Format in all cases: cell-based, human
[1] = tested on: AQP4 p61-80-specific T cells; experiment: Epitope mapping: recall proliferation of AQP4 p61-80-reactive T cells to truncated peptides; settings: NMO patients, peptides 10 μg/ml, irradiated autologous APC, [3H]thymidine after 3 d, FIG. 3A, 3B
[2] = tested on: T cells from NMO patients; experiment: T cell proliferation by CFSE dilution (cell division index); settings: for proliferative T cell response to individual AQP4 peptides: NMO patients, CFSE dilution, peptides 10 μg/ml, 10 d, FIG. 1D
[3] = tested on: T cells initially stimulated with AQP4 p63-76 or ABC-TP
[4] = tested on: CD4+CFSElow proliferating T cells; experiment: Intracellular IL-17 and IFN-γ staining of proliferating antigen-specific CD4+ T cells; settings: for frequencies of IL-17+ single- and IL-17+IFN-γ+ double-positive (Th17) cells: NMO patients in comparison to HC, PMA/Ionomycin 5 h, FIG. 4A, B
Experimental: (§1) Single-cell suspensions were incubated with human serum to prevent nonspecific antibody binding, then stained with anti-CD3, -CD4, -CD8, -CD25, -MHC Class II, -CD40, -CD80, and -CD86 (eBioscience and BD Bioscience). Intracellular cytokine production by CD4^+ T cells and APC was analyzed by monitoring the expression of IFN-γ, IL-17, IL-6, IL-1β and IL-10 (1:100) (eBioscience). Foxp3 staining was performed according to the manufacturer's protocol (eBioscience). For intracellular cytokine staining, T cells were stimulated with phorbol 12-myristate 13-acetate (PMA, 50 ng/ml) plus ionomycin (500 ng/ml) in the presence of GolgiStop (1 μl/ml) (BD Biosciences). CD14^+ cells were stimulated with LPS (1 μg/ml; Sigma-Aldrich) for 4 or 20 h in the presence of GolgiStop. Cells were analyzed by flow cytometry on a FACS Canto flow cytometer (BD Biosciences).
FIG. 4A-4D. […] PBMC were stained with CFSE and cultured for 10 d with AQP4 peptides (10 μg/ml) or rhAQP4 (5 μg/ml). (Panel A) CD4^+CFSE^low proliferating T cells were analyzed for IL-17 and IFN-γ production by intracellular staining after stimulation with PMA/Ionomycin for 5 h. (Panel B) Frequencies of IL17^+IFN-γ^−, IL17^+IFN-γ^+ and IL17^−IFN-γ^+ were examined among proliferating p61-80-specific CD4^+ T cells (n=8 NMO and n=5 HC), p156-170-specific CD4^+ T cells (n=6 NMO and n=3 HC) and rhAQP4-specific CD4^+ T cells (n=6 NMO and n=5 HC). Frequencies of IL-17- and IFN-γ-single positive T cells were used to calculate Th17/Th1 ratio. (Panel C) PBMC were examined by FACS for expression of Treg markers including CD4, CD127 and CD25. (Panel D) CFSE-labeled PBMC were cultured for 10 d with AQP4 p61-80 (10 μg/ml) or rhAQP4 (5 μg/ml). Proliferating CD4^+ T cells (CDI>2) were examined by FACS for expression of CD25^high, defined as the top half of CD25^+ cells, and Foxp3 (n=8 NMO p61-80, n=6 HC p61-80, n=7 NMO rhAQP4 and n=5 HC rhAQP4). Box-and-whisker plots include the median, distribution and range. **P<0.01 Mann-Whitney U test.

[5] = tested on: peripheral blood mononuclear cells (PBMC); experiment: PBMC proliferation by [3H]thymidine incorporation, primary cultures; settings: for proliferative responses of NMO patients to individual AQP4 peptides: peptides 10 μg/ml, 6 d, [3H]thymidine, FIG. 1B
[6] = tested on: proliferating CD4+ T cells; experiment: Treg (CD25high Foxp3) frequency among proliferating antigen-specific CD4+ T cells; settings: NMO patients versus HC, FIG. 4D
Experimental: as §1
FIG. 4A-4D. […] PBMC were stained with CFSE and cultured for 10 d with AQP4 peptides (10 μg/ml) or rhAQP4 (5 μg/ml). (Panel A) CD4^+CFSE^low proliferating T cells were analyzed for IL-17 and IFN-γ production by intracellular staining after stimulation with PMA/Ionomycin for 5 h. (Panel B) Frequencies of IL17^+IFN-γ^−, IL17^+IFN-γ^+ and IL17^−IFN-γ^+ were examined among proliferating p61-80-specific CD4^+ T cells (n=8 NMO and n=5 HC), p156-170-specific CD4^+ T cells (n=6 NMO and n=3 HC) and rhAQP4-specific CD4^+ T cells (n=6 NMO and n=5 HC). […]

[7] = tested on: T cells initially stimulated with rhAQP4; experiment: Antigen recall proliferation after initial stimulation with rhAQP4
[8] = PBMC from 4 NMO patients, primed 10 d at 10 μg/ml, [3H]thymidine after 3 d, FIG. 3E

GTEKPLPVDMVLISLCFG (synthetic poypeptide) [p61-78]
proliferation of AQP4 p61-80-specific T cells to truncated peptides [1]: proliferated

PVDMVLISLCFGLS (synthetic poypeptide) [p67-80]
proliferation of AQP4 p61-80-specific T cells to truncated peptides [1]: less efficiently than p63-80

AGHGLLVELIITFQL (synthetic poypeptide) [p156-170]
proliferative T cell response to individual AQP4 peptides [2]: T cell responses were observed
recall proliferation of ABC-TP p204-217-primed T cells [3, 8]: not observed
recall proliferation of AQP4 p63-76-primed T cells [3, 8]: not observed
frequencies of IL-17+ single- and IL-17+IFN-γ+ double-positive (Th17) cells [4]: No Th17 bias
proliferative responses of NMO patients to individual AQP4 peptides [5]: T cell determinants were identified

rhAQP4: Full length recombinant human AQP4 (1-323) expressed in Pichia pastoris
frequency of Treg among antigen-specific T cells [6]: significantly reduced frequency
frequencies of IL-17+ single- and IL-17+IFN-γ+ double-positive (Th17) cells [4]: not significant

GTEKPLPVDMVLIS (synthetic poypeptide) [p61-74]
proliferation of AQP4 p61-80-specific T cells to truncated peptides [1]: not

p61-80: peptide of amino acids position 61 to position 80 of human AQP-4 protein sequence (GTEKPLPVDMVLISLCFGLS)
immunodominance among peptides examined [7]: clearly immunodominant
proportion of CD4+ T cells that responded ([2]; NMO patients versus HC, FIG. 1E): higher in NMO patients than HC
proliferative T cell response to individual AQP4 peptides [2]: robust proliferative T cell response
frequencies of IL-17+ single- and IL-17+IFN-γ+ double-positive (Th17) cells [4]: significantly higher frequencies
Th17/Th1 ratio ([4]; NMO patients versus HC): elevated
proliferative responses of NMO patients to individual AQP4 peptides [5]: T cell determinants were identified

p11-30: synthetic overlapping AQP4 20-mer peptide, amino acids 11-30 of human AQP4 (GKCGPLCTRENIMVAFKGVW; UniProt P55087 11-30, looked up, fragment)
proliferative T cell response to individual AQP4 peptides [2]: T cell responses were observed
proliferative responses of NMO patients to individual AQP4 peptides [5]: not detected

FIILPVSMVLISLV [ABC-TP p204-217]
proliferation of T cells from NMO patients [2]: proliferated significantly
recall proliferation of AQP4 p63-76-primed T cells [3]: proliferated

DMVLISLCFGLS (synthetic poypeptide) [p69-80]
proliferation of AQP4 p61-80-specific T cells to truncated peptides [1]: less efficiently than p63-80

GILYLVTPPSVVGGLGVTMV (synthetic poypeptide) [p131-150]
proliferative responses of NMO patients to individual AQP4 peptides [5]: T cell determinants were identified

GTEKPLPVDMVL (synthetic poypeptide) [p61-72]
proliferation of AQP4 p61-80-specific T cells to truncated peptides [1]: not

GTEKPLPVDMVLISLC (synthetic poypeptide) [p61-76]
proliferation of AQP4 p61-80-specific T cells to truncated peptides [1]: proliferated

RFKEAFSKAAQQTKGSYMEV (synthetic poypeptide) [p261-280]
proliferative T cell response to individual AQP4 peptides [2]: T cell responses were observed
proliferative responses of NMO patients to individual AQP4 peptides [5]: not detected

EKPLPVDMVLISLC (listed as Homo sapiens) [p63-76]
proliferation of AQP4 p61-80-specific T cells to truncated peptides [1]: nearly as efficiently
recall proliferation of ABC-TP p204-217-primed T cells [3, 8]: vice versa

p21-40: synthetic overlapping AQP4 20-mer peptide, amino acids 21-40 of human AQP4 (NIMVAFKGVWTQAFWKAVTA; UniProt P55087 21-40, looked up, fragment)
proliferative T cell response to individual AQP4 peptides [2]: T cell responses were observed
proliferative responses of NMO patients to individual AQP4 peptides [5]: T cell determinants were identified

PLPVDMVLISLCFGLS (synthetic poypeptide) [p65-80]
proliferation of AQP4 p61-80-specific T cells to truncated peptides [1]: less efficiently than p63-80

SMNPARSFGPAVIMGNWENH (synthetic poypeptide) [p211-230]
proliferative responses of NMO patients to individual AQP4 peptides [5]: T cell determinants were identified

tetanus toxoid: Tetanus toxoid obtained from List Biological Laboratories, Inc. [reference compound]
response to tetanus toxoid, HC compared with NMO patients ([5]; lymphocytes from healthy controls): comparable responses
